Results: article PMC11189555, “Aryl amino acetamides prevent Plasmodium falciparum ring development via targeting the lipid-transfer protein PfSTART1” (Nature Communications, 2024)
Values joined by “and” are separate entries in the source; they are usually repeats but may differ in a detail not shown here. Identical values can stand only once. Like-named read-outs stand apart in the source and are kept apart here.

Tested on: 3D7 P. falciparum parasites
Test: Growth inhibition assay (72 h, LDH activity)
Assay type: cell-based, Plasmodium falciparum
Conditions: for Growth inhibition, (1 - av / DMSO) x 100: Fig 2B source data, 3D7, per biological replicate; for inhibition at 0.123457 µM: conc 123.457 nM; for inhibition at 0.37037 µM: conc 370.37 nM; for inhibition at 1.11111 µM: conc 1111.11 nM; for inhibition at 3.33333 µM: conc 3333.33 nM; for inhibition at 10 µM: conc 10000 nM
Description: Parasite growth assays with inhibitory compounds were performed as per[11] and are fully described in the Supplementary Information. […]
Growth inhibition assays. Synchronised ring-stage parasites (0.3-0.6% parasitemia, 2% haematocrit) were grown for 72 h in a serial-dilution of the compound under […]
and compound 4. Note that M-833 was first purchased from MolPort (MolPort -002-267-916) then made in-house at WEHI: the differences observed in EC50s across experiments are attributed to the different batches of M -833. For some experiments, 0, 0.25 or 2.5 mM of glucosamine (GlcN) was also added. Experiments were set up in technical duplicates or triplicates. Following a freeze -thaw cycle, lactate dehydrogenase (LDH) activity was assessed as an indicator of parasite growt h 5. 30 μL of parasite culture was incubated for 30 min in the dark with 75 μL Malstat mixture (0.1 M Tris pH 9.0, 20 g/L lactic acid, pH 7.5, 0.2% Triton-X100, 0.5 g/L acetylpyridine adenine dinucleotide (APAD, Sigma), 200 μg/mL nitroblue tetrazolium (NBT; Sigma), 1 μg/mL phenozine ethosulfate (PES; Sigma)). Absorbance was then measured at 650 nm, transformed using the formula below, plotted against the logarithm of the concentrations, and a non-linear regression (log(inhibitor) vs. response, variable slope) was calculated using GraphPad Prism to assess the half-inhibitory […]
Growth inhibition % = (1 − average(sample)− average(uRBC)) ∗ 100 […]
The DMSO samples were also used to assess growth of parasite in the presence of 0.25 and 2.5 mM GlcN (normalised by DMSO in 0 mM GlcN). […]

[1] = Plasmodium falciparum, 3D7, 3D7, 0 mM GlcN, read-out: Growth inhibition assay, NORMALISED
[2] = Plasmodium falciparum, 3D7, 3D7, 0.25 mM GlcN, read-out: Growth inhibition assay, NORMALISED

## Cc1cc(Cl)c(S(=O)(=O)N2CCCC2)cc1OCC(=O)NC1CCCCC1 [M-833]
3D7 replicate 2, M-833 0.15625 uM (plate column as in replicate 1)
  Normalised to DMSO: 42.9307
3D7 replicate 2, M-833 0.3125 uM (plate column as in replicate 1)
  Normalised to DMSO: 17.4092
3D7 replicate 2, M-833 0.625 uM (plate column as in replicate 1)
  Normalised to DMSO: 12.6706
3D7 replicate 2, M-833 1.25 uM (plate column as in replicate 1)
  Normalised to DMSO: 9.0394
3D7 replicate 2, M-833 2.5 uM (plate column as in replicate 1)
  Normalised to DMSO: 8.2153
3D7 replicate 2, M-833 5 uM (plate column as in replicate 1)
  Normalised to DMSO: 8.679
3D7 replicate 2, M-833 10 uM (plate column as in replicate 1)
  Normalised to DMSO: 8.859
M-833 conc 0.00152416 (unit not given)
  Growth inhibition, (1 - av / DMSO) x 100: -18.032% and -5.346% and 12.6336%
M-833 conc 0.00457247 (unit not given)
  Growth inhibition, (1 - av / DMSO) x 100: -25.7702% and -5.3748% and 10.1353%
M-833 conc 0.0137174 (unit not given)
  Growth inhibition, (1 - av / DMSO) x 100: -26.0091% and 2.611% and 15.3938%
M-833 conc 0.0411523 (unit not given)
  Growth inhibition, (1 - av / DMSO) x 100: 13.4703% and 15.2318% and 31.5623%
M-833 conc 0.123457 (unit not given)
  Growth inhibition, (1 - av / DMSO) x 100: 53.3795% and 44.2845% and 58.2697%
M-833 conc 0.37037 (unit not given)
  Growth inhibition, (1 - av / DMSO) x 100: 86.6253% and 82.9734% and 89.4611%
M-833 conc 1.11111 (unit not given)
  Growth inhibition, (1 - av / DMSO) x 100: 95.3188% and 95.9852%
M-833 conc 3.33333 (unit not given)
  Growth inhibition, (1 - av / DMSO) x 100: 96.9668% and 96.3144% and 96.0397%
M-833 conc 10 (unit not given)
  Growth inhibition, (1 - av / DMSO) x 100: 97.5639% and 97.303% and 96.0397%
M-833 0.0390625 uM, 3D7 replicate 3
  Normalised to DMSO: 105.125
M-833 0.078125 uM, 3D7 replicate 3
  Normalised to DMSO: 101.149
M-833 0.15625 uM, 3D7 replicate 3
  Normalised to DMSO: 87.6289
M-833 0.3125 uM, 3D7 replicate 3
  Normalised to DMSO: 55.4639
M-833 0.625 uM, 3D7 replicate 3
  Normalised to DMSO: 35.4934
M-833 1.25 uM, 3D7 replicate 3
  Normalised to DMSO: 26.4801
M-833 2.5 uM, 3D7 replicate 3
  Normalised to DMSO: 22.6804
M-833 5 uM, 3D7 replicate 3
  Normalised to DMSO: 16.5832
M-833 10 uM, 3D7 replicate 3
  Normalised to DMSO: 21.9735
Plasmodium falciparum, 3D7, 3D7, 0 mM GlcN, conc 13.7174 nM, read-out: Growth inhibition assay, NORMALISED
  inhibition at 0.0137174 µM: 20.6%
Plasmodium falciparum, 3D7, 3D7, 0 mM GlcN, conc 41.1523 nM, read-out: Growth inhibition assay, NORMALISED
  inhibition at 0.0411523 µM: 44.4%
[1]
  inhibition at 0.123457 µM: 79.5%
  inhibition at 0.37037 µM: 90.2%
  inhibition at 1.11111 µM: 91.3%
  inhibition at 3.33333 µM: 93.7%
  inhibition at 10 µM: 94.5%
[2]
  inhibition at 0.123457 µM: 77.6%
  inhibition at 0.37037 µM: 91.4%
  inhibition at 1.11111 µM: 95.5%
  inhibition at 3.33333 µM: 94.5%
  inhibition at 10 µM: 92.9%
Plasmodium falciparum, 3D7, 3D7 replicate 1, M-833 0.0390625 uM
  inhibition at 0.0390625 µM: 6.15%
Plasmodium falciparum, 3D7, 3D7 replicate 1, M-833 0.078125 uM
  inhibition at 0.078125 µM: 21.8%
Plasmodium falciparum, 3D7, 3D7 replicate 1, M-833 0.15625 uM
  inhibition at 0.15625 µM: 47%
Plasmodium falciparum, 3D7, 3D7 replicate 1, M-833 0.3125 uM
  inhibition at 0.3125 µM: 68.2%
